Laboratory results reported in ChEMBL document CHEMBL1127657, “Haloperidol-based irreversible inhibitors of the HIV-1 and HIV-2 proteases” (J Med Chem, 1994).

Legend:
[1] = biological target: Human immunodeficiency virus type 1 protease (Human immunodeficiency virus 1, UniProt Q72874); assay: In vitro inhibition of recombinant HIV-1 protease expressed in Escherichia coli strain D1210
[2] = biological target: T1, Human rhinovirus A protease (Human rhinovirus sp.) (UniProt Q4U254); conditions: Human immunodeficiency virus 2
T1 sequence (whole entry): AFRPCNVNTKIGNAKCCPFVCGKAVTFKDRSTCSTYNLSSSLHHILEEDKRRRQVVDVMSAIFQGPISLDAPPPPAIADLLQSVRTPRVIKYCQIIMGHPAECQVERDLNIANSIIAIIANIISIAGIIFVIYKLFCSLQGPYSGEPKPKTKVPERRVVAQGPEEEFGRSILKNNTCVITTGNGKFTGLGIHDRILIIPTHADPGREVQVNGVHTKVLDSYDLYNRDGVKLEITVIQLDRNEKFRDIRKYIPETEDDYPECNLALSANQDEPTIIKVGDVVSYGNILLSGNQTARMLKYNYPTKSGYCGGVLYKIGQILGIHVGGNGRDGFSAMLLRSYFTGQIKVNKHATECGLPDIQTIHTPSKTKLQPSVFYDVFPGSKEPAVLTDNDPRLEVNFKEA

[3] = biological target: Human immunodeficiency virus type 1 protease (Human immunodeficiency virus 1) (UniProt Q72874)
Description: The irreversibility of the inactivation reaction of HIV-1 PR was assessed

Compound	IC50 [1]	K inact [2]	K inact [3]
OC1(C#CC2(c3ccccc3)CO2)CCN(Cc2ccccc2)CC1 (centres undefined)	725 µM	–	–
O=C(C#CCN1CCC(O)(c2ccc(Cl)cc2)CC1)c1ccc(-c2ccccc2)cc1	100 µM	–	–
OC1(c2ccc(Cl)cc2)CCN(CC#CC2(c3ccccc3)CO2)CC1 (centres undefined)	150 µM	–	–
O=C(/C=C/CN1CCC(O)(c2ccc(Cl)cc2)CC1)c1ccc(F)cc1	80 µM	–	–
O=C(/C=C/C[N+]1([O-])CCC(O)(c2ccc(Cl)cc2)CC1)c1ccc(F)cc1 (centres undefined)	30 µM	4.33 min⁻¹	86 min⁻¹
O=C(C#CCN1CCC(O)(c2ccc(Cl)cc2)CC1)c1cccc(-c2ccccc2)c1	63 µM	–	–
O=C(C#CCN1CCC(O)(c2ccc(Cl)cc2)CC1)c1ccccc1	20 µM	–	–
